Reference: ChEMBL document CHEMBL5465560, “Selectivity Literature for EUbOPEN Chemogenomic Library” (2024)
Values belong to the compound of their own block, whether it stands above or below them.

Key:
[1] = biological target: Serine/threonine-protein kinase PAK 3 (Homo sapiens) (UniProt O75914); experiment: Selectivity interaction (Kinase panel (Z-LYTE Assay)) EUB0001632a PAK3; conditions: at 10 µM
[2] = biological target: T1, Peregrin (Homo sapiens) (UniProt P55201); experiment: Selectivity interaction (Human bromodomain panel (DSF assay)) EUB0000233b BRPF1
T1 sequence (whole entry): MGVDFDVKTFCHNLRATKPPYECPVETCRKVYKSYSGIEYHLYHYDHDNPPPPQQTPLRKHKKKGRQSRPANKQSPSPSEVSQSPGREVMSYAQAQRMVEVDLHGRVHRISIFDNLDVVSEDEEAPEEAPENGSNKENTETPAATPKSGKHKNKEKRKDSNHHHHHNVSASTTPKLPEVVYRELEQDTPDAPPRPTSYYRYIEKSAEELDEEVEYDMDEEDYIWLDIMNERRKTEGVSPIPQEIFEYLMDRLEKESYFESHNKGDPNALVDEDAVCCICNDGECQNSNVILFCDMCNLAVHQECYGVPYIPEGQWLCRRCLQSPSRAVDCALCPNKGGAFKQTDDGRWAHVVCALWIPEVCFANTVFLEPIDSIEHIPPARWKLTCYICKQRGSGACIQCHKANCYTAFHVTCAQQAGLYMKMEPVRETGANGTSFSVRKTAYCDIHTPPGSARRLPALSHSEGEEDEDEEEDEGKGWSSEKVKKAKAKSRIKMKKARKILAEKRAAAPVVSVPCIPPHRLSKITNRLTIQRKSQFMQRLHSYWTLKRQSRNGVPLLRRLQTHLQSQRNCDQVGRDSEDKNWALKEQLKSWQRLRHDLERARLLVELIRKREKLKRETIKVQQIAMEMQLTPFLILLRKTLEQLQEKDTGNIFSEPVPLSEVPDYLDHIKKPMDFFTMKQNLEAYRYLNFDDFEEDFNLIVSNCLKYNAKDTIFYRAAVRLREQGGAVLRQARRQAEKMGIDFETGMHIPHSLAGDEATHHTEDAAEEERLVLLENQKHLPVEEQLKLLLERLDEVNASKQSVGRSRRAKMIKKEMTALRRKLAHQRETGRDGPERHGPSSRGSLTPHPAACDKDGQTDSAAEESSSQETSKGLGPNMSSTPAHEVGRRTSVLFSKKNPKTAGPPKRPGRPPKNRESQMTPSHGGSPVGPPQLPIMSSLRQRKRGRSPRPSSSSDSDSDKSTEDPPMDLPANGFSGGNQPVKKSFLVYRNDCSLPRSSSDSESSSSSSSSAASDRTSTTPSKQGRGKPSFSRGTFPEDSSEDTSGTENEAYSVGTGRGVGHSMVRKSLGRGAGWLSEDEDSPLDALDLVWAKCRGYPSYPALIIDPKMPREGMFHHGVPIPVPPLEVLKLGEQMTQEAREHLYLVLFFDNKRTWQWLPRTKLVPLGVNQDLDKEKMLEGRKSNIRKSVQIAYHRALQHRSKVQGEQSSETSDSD

[3] = biological target: Serine/threonine-protein kinase N1 (Homo sapiens, UniProt Q16512); experiment: Selectivity interaction (KinomeScan (DiscoverX)) EUB0000666a PKN1; conditions: at 10 µM
Sequence of Serine/threonine-protein kinase N1 (Q16512 2-942 limits assumed): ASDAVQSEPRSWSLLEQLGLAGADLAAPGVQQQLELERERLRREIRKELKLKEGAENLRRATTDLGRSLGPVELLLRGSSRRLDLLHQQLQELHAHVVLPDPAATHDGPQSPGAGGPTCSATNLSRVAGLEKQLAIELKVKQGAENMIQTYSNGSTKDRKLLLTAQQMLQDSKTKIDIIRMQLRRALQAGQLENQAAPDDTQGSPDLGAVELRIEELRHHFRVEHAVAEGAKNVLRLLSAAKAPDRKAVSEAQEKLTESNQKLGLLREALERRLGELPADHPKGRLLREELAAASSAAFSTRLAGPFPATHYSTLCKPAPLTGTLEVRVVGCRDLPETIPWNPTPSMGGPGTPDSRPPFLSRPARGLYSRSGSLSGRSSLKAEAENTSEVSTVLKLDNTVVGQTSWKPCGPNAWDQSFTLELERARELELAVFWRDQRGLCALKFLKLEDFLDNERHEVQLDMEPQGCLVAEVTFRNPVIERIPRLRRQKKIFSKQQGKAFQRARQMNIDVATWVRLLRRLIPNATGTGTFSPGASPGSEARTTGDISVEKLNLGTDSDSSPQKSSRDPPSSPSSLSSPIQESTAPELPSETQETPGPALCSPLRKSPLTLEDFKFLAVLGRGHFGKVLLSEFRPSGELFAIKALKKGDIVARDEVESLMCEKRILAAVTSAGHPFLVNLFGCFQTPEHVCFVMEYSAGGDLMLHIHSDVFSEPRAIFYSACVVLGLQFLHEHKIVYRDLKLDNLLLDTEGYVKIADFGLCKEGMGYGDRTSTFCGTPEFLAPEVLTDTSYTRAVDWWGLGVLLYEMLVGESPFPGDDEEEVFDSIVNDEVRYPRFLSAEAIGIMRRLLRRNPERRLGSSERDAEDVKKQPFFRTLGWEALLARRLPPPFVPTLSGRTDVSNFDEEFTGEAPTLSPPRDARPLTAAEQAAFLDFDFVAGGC

[4] = biological target: Glycogen synthase kinase-3 beta (Homo sapiens, UniProt P49841); experiment: Selectivity interaction (ActivX KiNativ screen (kinase selectivity in THP-1 cell lysates)) EUB0000639a GSK3B; assay type: subcellular; conditions: lysate
Sequence of Glycogen synthase kinase-3 beta (P49841 whole entry, looked up): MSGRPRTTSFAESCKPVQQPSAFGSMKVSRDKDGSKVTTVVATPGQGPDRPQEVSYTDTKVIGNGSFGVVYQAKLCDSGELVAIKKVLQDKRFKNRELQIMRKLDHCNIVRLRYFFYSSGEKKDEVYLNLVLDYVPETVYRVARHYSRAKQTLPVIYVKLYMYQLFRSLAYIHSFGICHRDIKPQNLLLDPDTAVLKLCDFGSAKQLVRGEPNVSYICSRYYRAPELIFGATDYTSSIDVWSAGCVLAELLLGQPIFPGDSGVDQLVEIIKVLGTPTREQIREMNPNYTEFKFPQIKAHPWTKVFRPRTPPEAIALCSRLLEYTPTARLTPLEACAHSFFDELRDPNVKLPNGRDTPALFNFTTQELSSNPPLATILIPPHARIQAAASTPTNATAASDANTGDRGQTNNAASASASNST

[5] = biological target: Cyclin-dependent kinase 7 (Homo sapiens, UniProt P50613); experiment: Selectivity interaction (ActivX KiNativ screen (kinase selectivity in THP-1 cell lysates)) EUB0000639a CDK7; assay type: subcellular; conditions: lysate, at 1 µM
Sequence of Cyclin-dependent kinase 7 (P50613 whole entry): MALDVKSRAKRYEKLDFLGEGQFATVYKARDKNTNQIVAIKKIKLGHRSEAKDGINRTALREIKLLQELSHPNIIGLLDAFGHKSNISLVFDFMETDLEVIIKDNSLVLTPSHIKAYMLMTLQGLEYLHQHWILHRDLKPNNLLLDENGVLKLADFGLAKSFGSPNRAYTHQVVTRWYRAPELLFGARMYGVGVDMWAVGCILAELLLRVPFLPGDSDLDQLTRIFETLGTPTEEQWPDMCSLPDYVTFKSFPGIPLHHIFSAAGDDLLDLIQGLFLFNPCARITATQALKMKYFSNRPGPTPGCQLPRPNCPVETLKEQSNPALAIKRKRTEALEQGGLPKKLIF

[6] = test system: Serine/threonine-protein kinase B-raf (Homo sapiens), P15056 [V600E]; experiment: (§1) Selectivity interaction (KinomeScan (DiscoverX)) EUB0000045b BRAF
Sequence of Serine/threonine-protein kinase B-raf (Homo sapiens), P15056 [V600E] (P15056 whole entry V600E): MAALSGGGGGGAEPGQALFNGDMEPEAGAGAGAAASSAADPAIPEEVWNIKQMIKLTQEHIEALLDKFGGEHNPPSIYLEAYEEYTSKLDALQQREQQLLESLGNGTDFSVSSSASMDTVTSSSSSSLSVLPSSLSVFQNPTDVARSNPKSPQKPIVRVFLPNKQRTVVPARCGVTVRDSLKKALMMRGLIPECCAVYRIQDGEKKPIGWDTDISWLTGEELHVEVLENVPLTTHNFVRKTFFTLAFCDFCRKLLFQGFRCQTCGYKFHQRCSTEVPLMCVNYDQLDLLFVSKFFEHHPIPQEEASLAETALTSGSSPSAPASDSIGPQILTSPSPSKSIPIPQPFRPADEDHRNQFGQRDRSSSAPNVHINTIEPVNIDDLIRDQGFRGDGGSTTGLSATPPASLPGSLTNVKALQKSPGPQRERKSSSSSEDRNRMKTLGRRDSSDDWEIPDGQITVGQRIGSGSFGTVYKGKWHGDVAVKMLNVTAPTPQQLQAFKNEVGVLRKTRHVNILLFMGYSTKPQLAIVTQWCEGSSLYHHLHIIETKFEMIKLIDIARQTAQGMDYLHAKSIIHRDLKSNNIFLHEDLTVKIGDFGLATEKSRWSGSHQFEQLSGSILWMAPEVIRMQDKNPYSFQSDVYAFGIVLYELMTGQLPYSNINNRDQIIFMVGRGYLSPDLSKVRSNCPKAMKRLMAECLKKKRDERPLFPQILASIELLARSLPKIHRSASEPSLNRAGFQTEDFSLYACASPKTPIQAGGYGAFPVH

[7] = biological target: Serine/threonine-protein kinase B-raf (Homo sapiens) (UniProt P15056); experiment: as §1
Sequence of Serine/threonine-protein kinase B-raf (Homo sapiens) (P15056 whole entry): as the sequence (P15056 whole entry V600E) above, with E600V counted along it

[8] = biological target: Transcription initiation factor TFIID subunit 1-like (Homo sapiens) (UniProt Q8IZX4); experiment: Selectivity interaction (Bromodomain panel (DSF asssay)) EUB0000270b TAF1L
[9] = test system: Tyrosine-protein kinase ABL1 (Homo sapiens), P00519 [F317I]; conditions: at 10 µM
Sequence of Tyrosine-protein kinase ABL1 (Homo sapiens), P00519 [F317I] (P00519 whole entry F317I): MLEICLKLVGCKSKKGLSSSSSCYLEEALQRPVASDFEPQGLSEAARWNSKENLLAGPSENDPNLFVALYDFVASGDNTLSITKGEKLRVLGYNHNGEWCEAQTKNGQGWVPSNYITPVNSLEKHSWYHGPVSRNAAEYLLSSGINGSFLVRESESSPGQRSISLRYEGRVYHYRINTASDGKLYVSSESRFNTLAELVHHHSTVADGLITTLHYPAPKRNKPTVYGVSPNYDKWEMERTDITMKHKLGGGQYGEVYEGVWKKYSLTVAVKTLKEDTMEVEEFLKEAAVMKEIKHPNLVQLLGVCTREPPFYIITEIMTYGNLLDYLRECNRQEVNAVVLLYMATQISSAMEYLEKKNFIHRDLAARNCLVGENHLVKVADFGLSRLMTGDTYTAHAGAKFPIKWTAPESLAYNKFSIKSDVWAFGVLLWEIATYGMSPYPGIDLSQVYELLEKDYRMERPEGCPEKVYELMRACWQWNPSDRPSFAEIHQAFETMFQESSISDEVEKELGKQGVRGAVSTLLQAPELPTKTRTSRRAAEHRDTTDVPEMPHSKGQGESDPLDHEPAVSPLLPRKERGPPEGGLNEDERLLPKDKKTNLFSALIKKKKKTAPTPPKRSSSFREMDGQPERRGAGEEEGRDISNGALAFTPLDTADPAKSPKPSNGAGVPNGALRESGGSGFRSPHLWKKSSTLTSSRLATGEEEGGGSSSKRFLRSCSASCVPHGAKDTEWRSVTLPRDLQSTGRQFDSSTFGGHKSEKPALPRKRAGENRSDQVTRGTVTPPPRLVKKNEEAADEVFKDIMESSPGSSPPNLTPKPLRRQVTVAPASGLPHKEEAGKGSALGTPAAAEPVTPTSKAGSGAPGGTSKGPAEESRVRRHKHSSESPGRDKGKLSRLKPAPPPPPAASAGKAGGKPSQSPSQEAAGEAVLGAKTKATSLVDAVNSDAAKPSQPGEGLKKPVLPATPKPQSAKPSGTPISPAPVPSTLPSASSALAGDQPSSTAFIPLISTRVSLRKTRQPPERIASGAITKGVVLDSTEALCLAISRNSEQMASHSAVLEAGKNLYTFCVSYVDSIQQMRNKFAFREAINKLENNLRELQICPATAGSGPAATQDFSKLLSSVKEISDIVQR

[10] = biological target: T2, Muscle, skeletal receptor tyrosine-protein kinase (Homo sapiens) (UniProt O15146); experiment: Selectivity interaction (KinomeScan (DiscoverX)) EUB0000618a MUSK; conditions: at 10 µM
T2 sequence (whole entry): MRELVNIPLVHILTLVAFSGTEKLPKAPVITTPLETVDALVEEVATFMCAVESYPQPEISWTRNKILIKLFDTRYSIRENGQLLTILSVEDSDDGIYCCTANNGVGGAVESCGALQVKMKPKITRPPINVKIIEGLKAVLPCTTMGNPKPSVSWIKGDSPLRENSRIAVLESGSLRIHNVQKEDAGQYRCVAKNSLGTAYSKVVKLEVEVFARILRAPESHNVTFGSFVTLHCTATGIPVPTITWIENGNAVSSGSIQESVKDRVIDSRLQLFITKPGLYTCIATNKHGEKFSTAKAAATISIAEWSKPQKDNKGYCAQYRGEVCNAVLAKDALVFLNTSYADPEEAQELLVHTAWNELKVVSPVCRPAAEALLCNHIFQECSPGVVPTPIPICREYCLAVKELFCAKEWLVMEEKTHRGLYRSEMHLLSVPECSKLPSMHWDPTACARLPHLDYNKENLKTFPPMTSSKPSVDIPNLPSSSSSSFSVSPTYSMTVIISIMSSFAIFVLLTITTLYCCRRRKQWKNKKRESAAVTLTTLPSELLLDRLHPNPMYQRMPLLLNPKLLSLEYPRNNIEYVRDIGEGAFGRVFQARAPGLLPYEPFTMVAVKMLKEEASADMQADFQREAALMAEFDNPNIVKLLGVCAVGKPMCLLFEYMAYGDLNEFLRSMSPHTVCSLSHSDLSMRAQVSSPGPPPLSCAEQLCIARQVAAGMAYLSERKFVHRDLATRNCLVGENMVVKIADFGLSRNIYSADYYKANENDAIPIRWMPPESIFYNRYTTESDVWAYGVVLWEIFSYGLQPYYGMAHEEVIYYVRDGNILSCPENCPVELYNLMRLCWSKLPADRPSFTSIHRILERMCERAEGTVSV

[11] = biological target: Ribosomal protein S6 kinase alpha-3 (Homo sapiens, UniProt P51812); experiment: Selectivity interaction (KinomeScan (DiscoverX)) EUB0000618a RPS6KA3; conditions: at 10 µM
Sequence of Ribosomal protein S6 kinase alpha-3 (P51812 whole entry): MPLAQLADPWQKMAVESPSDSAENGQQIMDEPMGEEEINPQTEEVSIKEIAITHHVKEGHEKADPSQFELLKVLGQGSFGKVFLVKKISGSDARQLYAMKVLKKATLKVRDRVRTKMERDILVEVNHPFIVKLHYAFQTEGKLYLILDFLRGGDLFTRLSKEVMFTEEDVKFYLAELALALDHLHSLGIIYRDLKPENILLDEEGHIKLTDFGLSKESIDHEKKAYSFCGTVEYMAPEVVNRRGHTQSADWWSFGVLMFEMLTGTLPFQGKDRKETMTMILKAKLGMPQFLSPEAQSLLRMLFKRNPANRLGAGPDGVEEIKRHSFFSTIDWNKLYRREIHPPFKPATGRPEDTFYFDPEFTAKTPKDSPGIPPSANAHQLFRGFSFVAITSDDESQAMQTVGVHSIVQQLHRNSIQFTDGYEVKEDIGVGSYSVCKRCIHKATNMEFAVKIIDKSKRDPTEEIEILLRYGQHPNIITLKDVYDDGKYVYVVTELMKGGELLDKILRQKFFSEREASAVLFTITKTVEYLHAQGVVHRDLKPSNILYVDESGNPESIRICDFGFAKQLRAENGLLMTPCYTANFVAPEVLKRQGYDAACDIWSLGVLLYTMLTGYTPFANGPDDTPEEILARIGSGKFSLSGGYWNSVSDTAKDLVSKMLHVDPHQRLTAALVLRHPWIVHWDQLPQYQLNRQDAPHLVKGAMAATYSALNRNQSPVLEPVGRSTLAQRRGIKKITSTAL

[12] = biological target: Serine/threonine-protein kinase 38 (Homo sapiens) (UniProt Q15208); experiment: Selectivity interaction (ActivX KiNativ screen (ex vivo kinase selectivity in human PBMCs)) EUB0001619a STK38; assay type: cell-based; conditions: PBMC, at 1 µM
Sequence of Serine/threonine-protein kinase 38 (Homo sapiens) (Q15208 2-465 limits assumed): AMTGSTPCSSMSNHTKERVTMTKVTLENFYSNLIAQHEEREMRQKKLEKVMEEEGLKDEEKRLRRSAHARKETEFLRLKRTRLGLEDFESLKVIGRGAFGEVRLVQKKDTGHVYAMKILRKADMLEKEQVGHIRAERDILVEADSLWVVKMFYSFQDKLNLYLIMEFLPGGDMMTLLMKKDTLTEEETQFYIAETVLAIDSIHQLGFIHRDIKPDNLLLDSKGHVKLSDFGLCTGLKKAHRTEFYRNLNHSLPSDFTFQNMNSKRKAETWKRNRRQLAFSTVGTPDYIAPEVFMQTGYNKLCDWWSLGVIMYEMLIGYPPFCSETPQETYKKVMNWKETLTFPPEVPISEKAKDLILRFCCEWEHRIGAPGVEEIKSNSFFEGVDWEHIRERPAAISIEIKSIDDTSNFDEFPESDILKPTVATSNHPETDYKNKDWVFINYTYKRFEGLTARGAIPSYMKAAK

% of control [1]: -20.7%
SMILES: Cn1cc(-n2cnc3c(NCc4nc5cc(Cl)c(Cl)cc5[nH]4)nc(N4CCOCC4)nc32)cn1

dTM [2]: < 2 K
SMILES: CN(C)CCCOc1ccc(-c2cc(NCCCn3cccn3)nc(S(C)(=O)=O)n2)cc1

SMILES: O=C(NOC[C@H](O)CO)c1ccc(F)c(F)c1Nc1ccc(I)cc1F
% of control [3]: 100%

% of inhibition ([4]; at 0.01 µM): -3.7%
% of inhibition ([4]; at 0.04 µM): 1.4%
% of inhibition ([4]; at 0.2 µM): 2.2%
% of inhibition ([4]; at 1 µM): 2%
% of inhibition ([4]; at 5 µM): -4.4%
% of inhibition [5]: 10.8%
SMILES: CC[C@@H]1[C@H](F)C(=O)N[C@@H]1COc1nccc2cc(C(N)=O)c(OC)cc12 [ZIMLOVISERTIB]

SMILES: C=CC(=O)Nc1cc(-n2c(=O)ccc3cnc4ccc(-c5ccc(NS(C)(=O)=O)cc5)cc4c32)ccc1C
% of control ([6]; at 1 µM): 100%
% of control ([6]; at 10 µM): 100%
% of control ([7]; at 1 µM): 100%
% of control ([7]; at 10 µM): 100%

dTM [8]: -1.56 K
SMILES: Cc1cc(CN)cc(C)c1-c1ncn(C)c1-c1cncn1C

SMILES: Cc1cc([C@@H](C)Nc2ccccc2C(=O)O)c2nc(N3CCOCC3)cc(=O)n2c1 [AZD-6482]
% of control [9]: 94%

SMILES: O[C@H]1CC[C@H](Nc2ncc3nc(Nc4c(F)cc(F)cc4F)n([C@H]4CCOC4)c3n2)CC1
% of control [10]: 63%
% of control [11]: 60%

SMILES: N#Cc1cccc(-c2c[nH]c3ncnc(N4CCOCC4)c23)c1
% of inhibition [12]: 2%
